Results as given in patent publication US20210395309A1, “PEPTIDE-DRUG CONJUGATES” (Hong Kong Baptist University, priority 2020, published 2021).
“Also recorded” adds a separate entry of the source. Where two headings read alike, the source gives them in different places. Where a SMILES comes first, the peptide text is derived from it. The star is where a group is joined. Paclitaxel(2'-O-succinyl) = CC(=O)O[C@H]1C(=O)[C@@]2(C)[C@H]([C@H](OC(=O)c3ccccc3)[C@]3(O)C[C@H](OC(=O)[C@H](OC(=O)CCC(=O)*)[C@@H](NC(=O)c4ccccc4)c4ccccc4)C(C)=C1C3(C)C)[C@]1(OC(C)=O)CO[C@@H]1C[C@@H]2O

Assays:
[1] = test system: HEK293T (ACE-negative) cells; assay: MTT cytotoxicity assay in ACE-negative HEK293T; type: cell-based, human; settings: 48 h, mean (95% CI)
Protocol: (§1) MTT assays were performed to study the in vitro antitumor effects of BPP-PTX conjugate as well as free PTX and BPP in various ACE-negative and ACE-positive cell lines. Briefly, the cells (5,000 per well) were seeded in 96-well plates 24 h before treatment. The different drug formulations at concentrations of 0.01-1000 nM PTX or 0.01-1000 nM BPP-PTX and free BPP were added. The cells were cultured for another 48 h. 20 μL of 3-(4,5-dimethylthiazol-2-yl)-2,5-diphenyltetrazolium bromide (MTT) solution (5 mg/mL) was added. The cells were further cultured for 4 h, the medium was removed, and 150 μL DMSO was added to dissolve the MTT-formazan crystals. The optical density (O.D.) values for the untreated group were set as 100% viability. Independent experiments were performed in triplicate.
(§2) Each experiment was performed at least three times. GraphPad Prism 6.0 software was used for IC50 calculations and statistical analyses, including student t-test and two-way ANOVA.

[2] = test system: MDA-MB-231 (ACE-positive) cells; assay: MTT cytotoxicity assay in ACE-positive TNBC MDA-MB-231; type: cell-based, human; settings: 48 h, mean (95% CI)
Protocol: as §1, §2

[3] = test system: MDA-MB-468 (ACE-positive) cells; assay: MTT cytotoxicity assay in ACE-positive TNBC MDA-MB-468; type: cell-based, human; settings: 48 h, mean (95% CI)
Protocol: as §1, §2

HEK293T-ACE cells = assay: Cytotoxicity in ACE-overexpressed HEK293T-ACE versus control HEK293T; type: cell-based, human; settings: 1-, 10-, and 100 nM; ACE plasmid vs empty plasmid
Protocol: (§3) ACE siRNA (h2) (sc-270350) and Control siRNA-A (sc-37007) were purchased from Santa Cruz Biotechnology, Inc. The ACE expression plasmid was bought from Gen Script (Nanjing) Co., Ltd. Transfections were carried out using Lipofectamine 2000 (Invitrogen) according to the manufacturer's instructions.
as §1
(§4) Next, it was determined whether the cytotoxicity of BPP-PTX was mediated by ACE or not. First, the ACE protein was artificially overexpressed in HEK293T cell lines by transfecting ACE-containing plasmid, and the empty plasmid was transfected as a control. […]

MDA-MB-231-siACE cells = assay: Cytotoxicity in ACE-knockdown MDA-MB-231-siACE versus MDA-MB-231-siCtr; type: cell-based, human; settings: 10- and 100 nM
Protocol: as §3, §1, §4

MDA-MB-468-siACE cells = assay: Cytotoxicity in ACE-knockdown MDA-MB-468-siACE versus MDA-MB-468-siCtr; type: cell-based, human; settings: 10- and 100 nM
Protocol: as §3, §1, §4

MDA-MB-231 cells = assay: Annexin V-FITC/PI apoptosis assay, flow cytometry; type: cell-based, human; settings: 10 nM, 48 h
Protocol: (§5) 1×10^5 MDA-MB-231 or 1.5×10^5 MDA-MB-468 cells per well were cultured in 6-well plates. After attachment, cells were treated with DMSO or 10 nM PTX or BPP-PTX for 48 h and stained with Annexin V (AV) conjugated with FITC and propidium iodide (PI) using the Annexin V-FITC Apoptosis Assay Kit following the manufacturer's instructions. Stained cells were analyzed with the Cyflow Cube flow cytometer (PARTEC, Germany). Data were analyzed using FlowJo 7.6.5 software.

MDA-MB-468 cells [4] = assay: Annexin V-FITC/PI apoptosis assay, flow cytometry; type: cell-based, human; settings: 10 nM, 48 h
Protocol: as §5

[5] = test system: MDA-MB-231 and MDA-MB-468 cells; assay: DAPI staining of nuclei for apoptosis; type: cell-based, human; settings: 10 nM
Protocol: The occurrence of apoptosis was evaluated by DAPI staining. Cells (4.0×10^5 cells/well) were seeded and incubated with 10 nM PTX or BPP-PTX for 24 h. Following treatment, the cells were washed with phosphate-buffered saline (PBS) and fixed with 4% paraformaldehyde (Sigma-Aldrich) for 15 min at room temperature 25° C., and then stained in the dark with a DAPI solution for 10 min at room temperature 25° C. Thereafter, the cells were washed with PBS and photographed under an inverted fluorescence microscope (Olympus IX71; Olympus, Tokyo, Japan).

MDA-MB-468 cells [6] = assay: TNBC orthotopic mouse model, tumor growth; type: in vivo
Protocol: To test the in vivo efficacy and toxicity of BPP-PTX, an orthotopic mouse model was established. ACE-positive MDA-MB-468 cells were injected orthotopically in the mammary fat pads of the female athymic nude mouse. Once mice attained palpable tumors, they were randomly divided into four groups and treated for 28 days with PBS, free PTX (2.4 μmol/kg), low dose BPP-PTX (2.4 μmol/kg), and high-dose BPP-PTX (9.6 μmol/kg), every 4 days by intraperitoneal injection (i.p.). Tumor growth was monitored by measuring tumor volume every 4 days with a caliper rule. On day 4, after the first injection, the effect of the drugs was not yet detectable since average tumor volumes, as measured with the caliper, were similar in the four groups of mice. […] On day 28, the average tumor volume of mice treated with low-dose BPP-PTX had decreased by about 15% compared to animals treated with free PTX, and by 54% compared to control animals (PBS). Meanwhile, the average tumor volume of mice treated with high-dose BPP-PTX, had decreased by about 30% compared to animals treated with free PTX, and by 62% compared to control animals (FIGS. 5A and 5B). Consistently, the average tumor weight of mice treated with low-dose BPP-PTX was 0.20 g (0.17, 0.24) lower than that of mice treated with free PTX (0.26 g (0.21, 0.31)) and control mice (0.43 g (0.37, 0.49)).

[7] = for body weight decrease compared with control mice: day 28
Protocol: Mice were kept at room temperature 25° C. with an alternating 12 h light-dark cycle and were allowed access to food and water. […] MDA-MB-468 cells (5×10^6 cells per mouse) were suspended in PBS and inoculated subcutaneously into the fourth mammary fat pad of athymic nude mice. Tumor growth was monitored every four days by measuring two perpendicular diameters with calipers. […] The tumors were measured with calipers every day, and tumor volumes were calculated using the following formula: a^2×b×0.4, where “a” is the smallest diameter and “b” is the diameter perpendicular to “a”. At the end of the experiment, the mice were sacrificed, and the tumor weights of each animal were analyzed. Blood samples (˜100 μL) were taken from the retro-orbital plexus in heparinized capillary tubes (Modulohm A/S, Herlev, Denmark). Total white blood cell counts were determined manually for each sample using a Neubauer chamber (GMBH, Wertheim, Germany).

| SMILES | IC50 ([1]; Homo sapiens, HEK-293T) [nM] | IC50 ([2]; Homo sapiens) [nM] | IC50 ([3]; Homo sapiens) [nM] | cell variability in HEK293T-ACE compared with HEK293T (HEK293T-ACE cells) | cell variability in siACE cells compared with siCtr cells (MDA-MB-231-siACE cells) | cell variability in siACE cells compared with siCtr cells (MDA-MB-468-siACE cells) | apoptosis (MDA-MB-231 cells) | apoptosis (MDA-MB-468 cells [4]) | nuclei morphology (DAPI) [5] | average tumor weight (MDA-MB-468 cells [6]; end of 28-day treatment, 2.4 μmol/kg i.p. every 4 days) [g] | tumor growth compared with control mice (MDA-MB-468 cells [6]; i.p. every 4 days, 28 days, PTX 2.4 μmol/kg, BPP-PTX 2.4 and 9.6 μmol/kg) | WBC count decrease after the 28-day treatment compared to before treatment ([7]; 2.4 μmol/kg i.p. every 4 days) | body weight decrease compared with control mice ([7]; 2.4 μmol/kg i.p. every 4 days) | IC50 [1] [nM] | IC50 [2] [nM] | IC50 [3] [nM] | WBC count decrease after the 28-day treatment compared to before treatment ([7]; 9.6 μmol/kg i.p. every 4 days) [%] | body weight loss compared with control mice ([7]; day 0 to day 24, low dose 2.4 μmol/kg) | body weight decrease compared with control mice ([7]; 9.6 μmol/kg i.p. every 4 days) [%] |
| --- | --- | --- | --- | --- | --- | --- | --- | --- | --- | --- | --- | --- | --- | --- | --- | --- | --- | --- | --- |
| CC(=O)O[C@H]1C(=O)[C@@]2(C)[C@H]([C@H](OC(=O)c3ccccc3)[C@]3(O)C[C@H](OC(=O)[C@H](O)[C@@H](NC(=O)c4ccccc4)c4ccccc4)C(C)=C1C3(C)C)[C@]1(OC(C)=O)CO[C@@H]1C[C@@H]2O [PTX, Paclitaxel] | 6.7 | 3.1 | 3 | No differences | no difference | no difference | induced apoptosis | induced apoptosis | condensed and fragmented | 0.26 | significantly lower; also recorded: clear reduction | about 52% | about 6.2% |  |  |  |  |  |  |
| CC[C@H](C)[C@H](NC(=O)[C@H](CCC(N)=O)NC(=O)[C@@H]1CCCN1C(=O)[C@H](CCCNC(=N)N)NC(=O)[C@@H]1CCCN1C(=O)[C@H](Cc1c[nH]c2ccccc12)NC(=O)[C@H](CCC(=O)O)NC(=O)CCC(=O)O[C@@H](C(=O)O[C@H]1C[C@@]2(O)[C@@H](OC(=O)c3ccccc3)[C@@H]3[C@]4(OC(C)=O)CO[C@@H]4C[C@H](O)[C@@]3(C)C(=O)[C@H](OC(C)=O)C(=C1C)C2(C)C)[C@@H](NC(=O)c1ccccc1)c1ccccc1)C(=O)N1CCC[C@H]1C(=O)N1CCC[C@H]1C(N)=O [BPP-PTX] ({Paclitaxel(2'-O-succinyl)}-EWPRPQIPP-NH2) |  |  |  |  |  |  |  |  |  |  |  | about 17% | ~2.8% | 616 | 9.5 | 12.3 | ~22 | no body weight loss | ~6.4 |
